# Target: recombinant DYRK1A kinase (Homo sapiens (Human), UniProt Q13627)
# Assay: DYRK1A kinase assay (Ser/Thr 18 peptide Z-lyte FRET)
# Assay type: biochemical
# Conditions: DYRK1A kinase activity, Z-lyte Ser/Thr 18 peptide, 15 μM ATP; method text calls the value IC50; read-out: EC50 (the source's name)
# Outline: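 Z-lyte FRET read-out: coumarin (Em 455) over fluorescein (Em 520) emission ratio, converted to percent phosphorylation after 1 h development. Reaction: 0.25 μg/mL kinase, 15 μM ATP, 4 μM peptide, 1 h RT with compound, duplicate wells. IC50s fitted by non-linear regression.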
row,IC50,Compound
1,6 nM,"COc1nc(NC2CCN(CC(F)F)CC2)nn2ccc(-c3ccc4nccnc4c3)c12 [Compound 362, N-(1-(2,2-Difluoroethyl)piperidin-4-yl)-4-methoxy-5-(quinoxalin-6-yl)pyrrolo[2,1-f][1,2,4]triazin-2-amine]"
2,40.1 nM,"COc1nc(NC2CCN(CC(F)(F)F)CC2)nn2ccc(-c3ccc4nccnc4c3)c12 [Compound 363, 4-Methoxy-5-(quinoxalin-6-yl)-N-(1-(2,2,2-trifluoroethyl)piperidin-4-yl)pyrrolo[2,1-f][1,2,4]triazin-2-amine]"
3,2.8 nM,"COc1nc(NC2CCN(C3COC3)CC2)nn2ccc(-c3ccc4nccnc4c3)c12 [Compound 365, 4-Methoxy-N-(1-(oxetan-3-yl)piperidin-4-yl)-5-(quinoxalin-6-yl)pyrrolo[2,1-f][1,2,4]triazin-2-amine]"
4,2.5 nM,"COc1nc(NC2CCOCC2)nn2ccc(-c3ccc4nccnc4c3)c12 [Compound 366, 4-Methoxy-5-(quinoxalin-6-yl)-N-(tetrahydro-2H-pyran-4-yl)pyrrolo[2,1-f][1,2,4]triazin-2-amine]"
5,3.3 nM,"COc1nc(N[C@@H]2CCN(C)C[C@@H]2F)nn2ccc(-c3ccc4nccnc4c3)c12 [Compound 367, N-((3S,4R)-3-Fluoro-1-methylpiperidin-4-yl)-4-methoxy-5-(quinoxalin-6-yl)pyrrolo[2,1-f][1,2,4]triazin-2-amine]"
6,4 nM,"COc1nc(N[C@H]2CCN(C)C[C@H]2F)nn2ccc(-c3ccc4nccnc4c3)c12 [Compound 368, N-((3R,4S)-3-Fluoro-1-methylpiperidin-4-yl)-4-methoxy-5-(quinoxalin-6-yl)pyrrolo[2,1-f][1,2,4]triazin-2-amine]"
7,4.1 nM,"COc1nc(N[C@H]2CCN(CCF)C[C@H]2F)nn2ccc(-c3ccc4nccnc4c3)c12 [Compound 372, N-((3R,4S)-3-Fluoro-1-(2-fluoroethyl)piperidin-4-yl)-4-methoxy-5-(quinoxalin-6-yl)pyrrolo[2,1-f][1,2,4]triazin-2-amine]"
8,2.9 nM,"COc1nc(N[C@@H]2CCN(C3COC3)C[C@@H]2F)nn2ccc(-c3ccc4nccnc4c3)c12 [Compound 373, N-((3S,4R)-3-Fluoro-1-(oxetan-3-yl)piperidin-4-yl)-4-methoxy-5-(quinoxalin-6-yl)pyrrolo[2,1-f][1,2,4]triazin-2-amine]"
9,2.9 nM,"COc1nc(N[C@H]2CCN(C3COC3)C[C@H]2F)nn2ccc(-c3ccc4nccnc4c3)c12 [Compound 374, N-((3R,4S)-3-Fluoro-1-(oxetan-3-yl)piperidin-4-yl)-4-methoxy-5-(quinoxalin-6-yl)pyrrolo[2,1-f][1,2,4]triazin-2-amine]"
10,3.3 nM,"COc1nc(N[C@@H]2CCN(C)CC2(F)F)nn2ccc(-c3ccc4nccnc4c3)c12 [Compound 375, (R)—N-(3,3-Difluoro-1-methylpiperidin-4-yl)-4-methoxy-5-(quinoxalin-6-yl)pyrrolo[2,1-f][1,2,4]triazin-2-amine]"
11,3.3 nM,"COc1nc(N[C@@H]2CCN(C3COC3)CC2(F)F)nn2ccc(-c3ccc4nccnc4c3)c12 [Compound 379, (R)—N-(3,3-Difluoro-1-(oxetan-3-yl)piperidin-4-yl)-4-methoxy-5-(quinoxalin-6-yl)pyrrolo[2,1-f][1,2,4]triazin-2-amine]"
12,2.5 nM,"COc1nc(NC23CC(N)(C2)C3)nn2ccc(-c3ccc4nccnc4c3)c12 [Compound 381, N1-(4-Methoxy-5-(quinoxalin-6-yl)pyrrolo[2,1-f][1,2,4]triazin-2-yl)bicyclo[1.1.1]pentane-1,3-diamine]"
13,1.8 nM,"COc1nc(NC23CC(NC(C)=O)(C2)C3)nn2ccc(-c3ccc4nccnc4c3)c12 [Compound 382, N-(3-((4-Methoxy-5-(quinoxalin-6-yl)pyrrolo[2,1-f][1,2,4]triazin-2-yl)amino)bicyclo[1.1.1]pentan-1-yl)acetamide]"
14,1.4 nM,"COc1nc(N[C@H]2C[C@]3(CCN3C(C)=O)C2)nn2ccc(-c3ccc4nccnc4c3)c12 [Compound 383, 1-((4s,6r)-6-((4-Methoxy-5-(quinoxalin-6-yl)pyrrolo[2,1-f][1,2,4]triazin-2-yl)amino)-1-azaspiro[3.3]heptan-1-yl)ethan-1-one]"
15,1.7 nM,"COc1nc(NC2CC3(COC3)C2)nn2ccc(-c3ccc4nccnc4c3)c12 [Compound 385, 4-Methoxy-5-(quinoxalin-6-yl)-N-(2-oxaspiro[3.3]heptan-6-yl)pyrrolo[2,1-f][11,2,4]triazin-2-amine]"
16,0.9 nM,"COc1nc(NC2CC3(CCN(C(C)=O)CC3)C2)nn2ccc(-c3ccc4nccnc4c3)c12 [Compound 386, 1-(2-((4-Methoxy-5-(quinoxalin-6-yl)pyrrolo[2,1-f][1,2,4]triazin-2-yl)amino)-7-azaspiro[3.5]nonan-7-yl)ethan-1-one]"
17,0.7 nM,"COc1nc(N[C@H]2C[C@@H]3CN(C(C)=O)C[C@@H]3C2)nn2ccc(-c3ccc4nccnc4c3)c12 [Compound 387, 1-((3aR,5s,6aS)-5-((4-Methoxy-5-(quinoxalin-6-yl)pyrrolo[2,1-f][1,2,4]triazin-2-yl)amino)hexahydrocyclopenta[c]pyrrol-2(1H)-yl)ethan-1-one]"
18,1.2 nM,"COc1nc(N[C@@H]2C[C@@H]3CN(C(C)=O)C[C@@H]3C2)nn2ccc(-c3ccc4nccnc4c3)c12 [Compound 388, 1-((3aR,5r,6aS)-5-((4-Methoxy-5-(quinoxalin-6-yl)pyrrolo[2,1-f][1,2,4]triazin-2-yl)amino)hexahydrocyclopenta[c]pyrrol-2(1H)-yl)ethan-1-one]"
19,1.3 nM,"COc1nc(NC2CCC3(CC2)CN(C(C)=O)C3)nn2ccc(-c3ccc4nccnc4c3)c12 [Compound 389, 1-(7-((4-Methoxy-5-(quinoxalin-6-yl)pyrrolo[2,1-f][1,2,4]triazin-2-yl)amino)-2-azaspiro[3.5]nonan-2-yl)ethan-1-one]"
20,3 nM,"COc1nc(NC2CCC3(CC2)COC3)nn2ccc(-c3ccc4nccnc4c3)c12 [Compound 390, 4-Methoxy-5-(quinoxalin-6-yl)-N-(2-oxaspiro[3.5]nonan-7-yl)pyrrolo[2,1-f][1,2,4]triazin-2-amine]"
21,7.2 nM,"C[C@]1(O)C[C@H](Nc2nc(OC3COC3)c3c(-c4ccc5nccnc5c4)ccn3n2)C1 [Compound 391, cis-1-Methyl-3-((4-(oxetan-3-yloxy)-5-(quinoxalin-6-yl)pyrrolo[2,1-f][1,2,4]triazin-2-yl)amino)cyclobutan-1-ol]"
22,178 nM,"COc1nc(N[C@@H](C)c2ccccn2)nn2ccc(-c3ccn4nccc4c3)c12 [Compound 393, (S)-4-Methoxy-5-(pyrazolo[1,5-a]pyridin-5-yl)-N-(1-(pyridin-2-yl)ethyl)pyrrolo[2,1-f][1,2,4]triazin-2-amine]"
23,2.1 nM,"COc1nc(N[C@H]2C[C@@](C)(NC(=O)C3(C#N)CC3)C2)nn2ccc(-c3ccn4nccc4c3)c12 [Compound 394, 1-Cyano-N-((1s,3s)-3-((4-methoxy-5-(pyrazolo[1,5-a]pyridin-5-yl)pyrrolo[2,1-f][1,2,4]triazin-2-yl)amino)-1-methylcyclobutyl)cyclopropane-1-carboxamide]"
24,6.2 nM,"COc1nc(NC2CCC3(CC2)COC3)nn2ccc(-c3ccn4nccc4c3)c12 [Compound 395, 4-Methoxy-5-(pyrazolo[1,5-a]pyridin-5-yl)-N-(2-oxaspiro[3.5]nonan-7-yl)pyrrolo[2,1-f][1,2,4]triazin-2-amine]"

# From patent publication US20240002391A1, “4-ALKOXYPYRROLO[2,1-F][1,2,4]TRIAZINES AND PREPARATION AND USES THEREOF” (BioSplice Therapeutics, Inc., priority 2022, published 2024)
